Data as given in patent publication US9676758B2, “1-heteroaryl-indoline-4-carboxamides as modulators of GPR52 useful for the treatment or prevention of disorders related thereto” (Arena Pharmaceuticals, Inc., priority 2015, dated 2017).

Target: T1, recombinant GPR52 (Homo sapiens, UniProt Q9Y2T5)
T1 construct: expressed in transfected cells
Test: HTRF cAMP assay for direct cAMP measurement
Type: cell-based
Conditions: mean EC50; CHO-K1 or HEK293 cells stably expressing recombinant GPR52
Method: HTRF cAMP assays were performed using commercially available assay kits according to the manufacturer's instructions (cAMP Dynamic 2 Assay Kit; #62AM4PEJ, Cisbio Bioassays, Bedford, Mass.). CHO-K1 or HEK293 cells stably expressing recombinant GPR52 were harvested and resuspended in assay buffer (PBS containing 0.5 mM IBMX and 0.1% BSA) at a density of 1.2×10^6 cells per mL. […] Test compounds were solubilized and serially diluted in DMSO using 5-fold dilutions to generate 10-point dose response curves. These serially diluted samples were then further diluted in PBS to achieve a 2× stock. The diluted compounds were transferred to triplicate assay plates (5 μL per well to achieve the 1× final assay concentration). A positive control was included in each assay run. After one-hour incubation at room temperature, 5 μL of cAMP D2 reagent diluted in lysis buffer was added to each well, followed by 5 μL of cryptate reagent. Plates were then incubated at room temperature for one hour prior to reading. Time-resolved fluorescence measurements were collected on an HTRF-capable plate reader (e.g., EnVision® (PerkinElmer, Waltham, Mass.) or PHERAstar (BMG LABTECH, Cary, N.C.)). Counts from the plate reader were fit to the cAMP standard curve included on each plate to determine the amount of cAMP in each test well. Dose-response curves were generated from the cAMP data and analyzed using a nonlinear least squares curve-fitting program to obtain EC50 values.

T1 sequence (Q9Y2T5 whole entry): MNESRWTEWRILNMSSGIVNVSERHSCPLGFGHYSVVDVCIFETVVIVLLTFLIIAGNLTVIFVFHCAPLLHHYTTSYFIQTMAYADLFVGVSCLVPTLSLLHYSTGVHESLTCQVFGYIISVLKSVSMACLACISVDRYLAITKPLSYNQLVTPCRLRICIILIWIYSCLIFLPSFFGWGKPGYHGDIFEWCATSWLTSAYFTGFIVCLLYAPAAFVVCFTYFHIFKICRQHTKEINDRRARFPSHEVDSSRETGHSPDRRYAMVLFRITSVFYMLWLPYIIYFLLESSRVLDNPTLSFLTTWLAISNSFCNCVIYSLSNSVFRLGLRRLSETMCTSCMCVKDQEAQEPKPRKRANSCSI

Question: For `COC[C@@H](O)CNC(=O)c1cccc2c1CCN2c1ccnc(Cc2cc(F)c(F)c(F)c2)c1` [Compound 189, (S)-N-(2-Hydroxy-3-methoxypropyl)-1-(2-(3,4,5-trifluorobenzyl)pyridin-4-yl)indoline-4-carboxamide], which EC50 is on record?
Answer: Its EC50 is 0.0219 µM.

Question: `O=C(N[C@H]1CCOC1)c1cccc2c1CCN2c1ccnc(Cc2cccc(C(F)(F)F)c2)c1` [Compound 3, (S)-N-(Tetrahydrofuran-3-yl)-1-(2-(3-(trifluoromethyl)benzyl)pyridin-4-yl)indoline-4-carboxamide] was tested. Which EC50 did it give?
Answer: Its EC50 is 0.0103 µM.

Question: For `O=C(N[C@H]1CCOC1)c1cccc2c1CCN2c1cncc(Cc2cccc(C(F)(F)F)c2)c1` [Compound 7, (S)-N-(Tetrahydrofuran-3-yl)-1-(5-(3-(trifluoromethyl)benzyl)pyridin-3-yl)indoline-4-carboxamide], which EC50 is on record?
Answer: Its EC50 is 0.00521 µM.

Question: With `Cn1cc(NC(=O)c2cccc3c2CCN3c2cc(Cc3cc(F)c(F)c(F)c3)ccn2)cn1` [Compound 117, N-(1-Methyl-1H-pyrazol-4-yl)-1-(4-(3,4,5-trifluorobenzyl)pyridin-2-yl)indoline-4-carboxamide] as the compound, how does the EC50 read?
Answer: Its EC50 is 0.0236 µM.

Question: With `CNC(=O)CCNC(=O)c1cccc2c1CCN2c1cc(Cc2cc(F)c(F)c(F)c2)ccn1` [Compound 172] as the compound, how does the EC50 read?
Answer: Its EC50 is 0.018 µM.

Question: For `NC(=O)c1cccc2c1CCN2c1cc(Cc2cnc3ccccc3c2)ccn1` [Compound 111, 1-(4-(Quinolin-3-ylmethyl)pyridin-2-yl)indoline-4-carboxamide], which EC50 is on record?
Answer: The EC50 was 0.061 µM.

Question: Which EC50 does the source give for `NC(=O)c1cccc2c1CCN2c1cc(Sc2cccc(C(F)(F)F)c2)ccn1` [Compound 30, 1-(4-(3-(Trifluoromethyl)phenylthio)pyridin-2-yl)indoline-4-carboxamide] here?
Answer: The EC50 was 0.428 µM.

Question: With `CC(=O)c1ccc(Cc2ccnc(N3CCc4c(C(N)=O)cccc43)c2)cc1` [Compound 55, 1-(4-(4-Acetylbenzyl)pyridin-2-yl)indoline-4-carboxamide] as the compound, how does the EC50 read?
Answer: The EC50 was 0.016 µM.

Question: `COc1ccc(Cc2ccnc(N3CCc4c3ccc(F)c4C(=O)NCCNC(C)=O)c2)cc1F` [Compound 164, N-(2-Acetamidoethyl)-5-fluoro-1-(4-(3-fluoro-4-methoxybenzyl)pyridin-2-yl)indoline-4-carboxamide] was tested. Which EC50 did it give?
Answer: Its EC50 is 0.0109 µM.

Question: Which EC50 does the source give for `COc1ccc(Cc2ccnc(N3CCc4c(C(=O)NC5CCN(CCO)CC5)cccc43)c2)cc1F` [Compound 91, 1-(4-(3-Fluoro-4-methoxybenzyl)pyridin-2-yl)-N-(1-(2-hydroxyethyl)piperidin-4-yl)indoline-4-carboxamide] here?
Answer: The EC50 was 0.00106 µM.

Question: `NC(=O)c1cccc2c1CCN2c1cc(Cc2cccc(OC(F)(F)F)c2)ccn1` [Compound 64, 1-(4-(3-(Trifluoromethoxy)benzyl)pyridin-2-yl)indoline-4-carboxamide] was tested. Which EC50 did it give?
Answer: Its EC50 is 0.0231 µM.

Question: Which EC50 does the source give for `NC(=O)c1cccc2c1CCN2c1cc(Cc2ccc3c(c2)OCCCO3)ccn1` [Compound 96, 1-(4-((3,4-Dihydro-2H-benzo[b][1,4]dioxepin-7-yl)methyl)pyridin-2-yl)indoline-4-carboxamide] here?
Answer: Its EC50 is 0.212 µM.

Question: Which EC50 does the source give for `O=C(NCCN1CCNC1=O)c1cccc2c1CCN2c1cc(Cc2cc(F)c(F)c(F)c2)ccn1` [Compound 133, N-(2-(2-Oxoimidazolidin-1-yl)ethyl)-1-(4-(3,4,5-trifluorobenzyl)pyridin-2-yl)indoline-4-carboxamide] here?
Answer: The EC50 was 0.0183 µM.

Question: How did the EC50 turn out when `O=C(NC[C@H](O)CO)c1cccc2c1CCN2c1cc(Cc2cc(F)cc(C(F)(F)F)c2)ccn1` [Compound 31, (S)-N-(2,3-Dihydroxypropyl)-1-(4-(3-fluoro-5-(trifluoromethyl)benzyl)pyridin-2-yl)indoline-4-carboxamide] was run?
Answer: The EC50 was 0.072 µM.

Question: How did the EC50 turn out when `O=C(NC[C@H](O)C(F)(F)F)c1cccc2c1CCN2c1cc(Cc2cc(F)c(F)c(F)c2)ccn1` [Compound 160, (S)-N-(3,3,3-Trifluoro-2-hydroxypropyl)-1-(4-(3,4,5-trifluorobenzyl)pyridin-2-yl)indoline-4-carboxamide] was run?
Answer: Its EC50 is 0.292 µM.

Question: `NC(=O)c1cccc2c1CCN2c1cc(Cc2ccc(O)c(F)c2)ccn1` [Compound 97, 1-(4-(3-Fluoro-4-hydroxybenzyl)pyridin-2-yl)indoline-4-carboxamide] was tested. Which EC50 did it give?
Answer: The EC50 was 0.0359 µM.

Question: Which EC50 does the source give for `O=C(NC[C@H](O)c1cccnc1)c1cccc2c1CCN2c1cc(Cc2cc(F)c(F)c(F)c2)ccn1` [Compound 148, (R)-N-(2-Hydroxy-2-(pyridin-3-yl)ethyl)-1-(4-(3,4,5-trifluorobenzyl)pyridin-2-yl)indoline-4-carboxamide] here?
Answer: The EC50 was 0.037 µM.

Question: Which EC50 does the source give for `CNC(=O)c1cc(Cc2ccnc(N3CCc4c(C(N)=O)cccc43)c2)ccc1F` [Compound 59, 1-(4-(4-Fluoro-3-(methylcarbamoyl)benzyl)pyridin-2-yl)indoline-4-carboxamide] here?
Answer: Its EC50 is 0.223 µM.

Question: For `Cc1cc(Cc2ccnc(N3CCc4c(C(N)=O)cccc43)c2)cnc1F` [Compound 50, 1-(4-((6-Fluoro-5-methylpyridin-3-yl)methyl)pyridin-2-yl)indoline-4-carboxamide], which EC50 is on record?
Answer: Its EC50 is 0.0174 µM.

Question: For `COC[C@@H](O)CNC(=O)c1cccc2c1CCN2c1cc(Cc2cc(F)cc(Cl)c2)ccn1` [Compound 168, (S)-1-(4-(3-Chloro-5-fluorobenzyl)pyridin-2-yl)-N-(2-hydroxy-3-methoxypropyl)indoline-4-carboxamide], which EC50 is on record?
Answer: The EC50 was 0.0316 µM.

Question: How did the EC50 turn out when `NC(=O)c1cccc2c1CCN2c1cc(Cc2cc3ccccc3o2)ccn1` [Compound 119, 1-(4-(Benzofuran-2-ylmethyl)pyridin-2-yl)indoline-4-carboxamide] was run?
Answer: The EC50 was 0.0387 µM.

Question: Which EC50 does the source give for `COc1ccc(Cc2ccnc(N3CCc4c(C(=O)NCCOCCO)cccc43)c2)cc1F` [Compound 205, 1-(4-(3-fluoro-4-methoxybenzyl)pyridin-2-yl)-N-(2-(2-hydroxyethoxy)ethyl)indoline-4-carboxamide] here?
Answer: The EC50 was 0.00856 µM.

Question: For `COc1ccc(Cc2ccnc(N3CCc4c(C(=O)NCCF)cccc43)c2)cc1F` [Compound 203, 1-(4-(3-fluoro-4-methoxybenzyl)pyridin-2-yl)-N-(2-fluoroethyl)indoline-4-carboxamide], which EC50 is on record?
Answer: The EC50 was 0.00554 µM.

Question: How did the EC50 turn out when `CN(C)CC(O)CNC(=O)c1cccc2c1CCN2c1cc(Cc2cc(F)c(F)c(F)c2)ccn1` (stereo not drawn) [Compound 158, N-(3-(Dimethylamino)-2-hydroxypropyl)-1-(4-(3,4,5-trifluorobenzyl)pyridin-2-yl)indoline-4-carboxamide] was run?
Answer: Its EC50 is 0.00676 µM.

Question: Which EC50 does the source give for `N#CCCNC(=O)c1cccc2c1CCN2c1cc(Cc2cccc(C(F)(F)F)c2)ccn1` [Compound 20, N-(2-Cyanoethyl)-1-(4-(3-(trifluoromethyl)benzyl)pyridin-2-yl)indoline-4-carboxamide] here?
Answer: The EC50 was 0.0363 µM.

Question: For `NC(=O)c1cccc2c1CCN2c1cc(Cc2ccc(F)c(CO)c2)ccn1` [Compound 63, 1-(4-(4-Fluoro-3-(hydroxymethyl)benzyl)pyridin-2-yl)indoline-4-carboxamide], which EC50 is on record?
Answer: Its EC50 is 0.0365 µM.

Question: Which EC50 does the source give for `CNC(=O)c1cccc2c1CCN2c1cncc(Cc2cccc(C(F)(F)F)c2)c1` [Compound 9, N-Methyl-1-(5-(3-(trifluoromethyl)benzyl)pyridin-3-yl)indoline-4-carboxamide] here?
Answer: The EC50 was 0.00745 µM.

Question: `COCC(COC)NC(=O)c1cccc2c1CCN2c1cc(Cc2cc(F)c(F)c(F)c2)ccn1` [Compound 131, N-(1,3-Dimethoxypropan-2-yl)-1-(4-(3,4,5-trifluorobenzyl)pyridin-2-yl)indoline-4-carboxamide] was tested. Which EC50 did it give?
Answer: The EC50 was 0.307 µM.

Question: Which EC50 does the source give for `O=C(NCCO)c1cccc2c1CCN2c1cncc(Cc2cccc(C(F)(F)F)c2)n1` [Compound 38, N-(2-Hydroxyethyl)-1-(6-(3-(trifluoromethyl)benzyl)pyrazin-2-yl)indoline-4-carboxamide] here?
Answer: Its EC50 is 0.601 µM.

Question: With `CC(=O)c1cc(Cc2ccnc(N3CCc4c(C(=O)NCCO)cccc43)c2)ccc1F` [Compound 77, 1-(4-(3-Acetyl-4-fluorobenzyl)pyridin-2-yl)-N-(2-hydroxyethyl)indoline-4-carboxamide] as the compound, how does the EC50 read?
Answer: Its EC50 is 0.0107 µM.

Question: `O=C(N[C@@H]1CCOC1=O)c1cccc2c1CCN2c1cc(Cc2cc(F)c(F)c(F)c2)ccn1` [Compound 135, (R)-N-(2-Oxotetrahydrofuran-3-yl)-1-(4-(3,4,5-trifluorobenzyl)pyridin-2-yl)indoline-4-carboxamide] was tested. Which EC50 did it give?
Answer: The EC50 was 0.142 µM.

Question: Which EC50 does the source give for `O=C(N[C@H]1CCOC1)c1cccc2c1CCN2c1cccc(Cc2cccc(C(F)(F)F)c2)n1` [Compound 2, (S)-N-(Tetrahydrofuran-3-yl)-1-(6-(3-(trifluoromethyl)benzyl)pyridin-2-yl)indoline-4-carboxamide] here?
Answer: Its EC50 is 0.106 µM.

Question: For `O=C(Nc1cnn(CCO)c1)c1cccc2c1CCN2c1cc(Cc2cc(F)c(F)c(F)c2)ccn1` [Compound 118, N-(1-(2-Hydroxyethyl)-1H-pyrazol-4-yl)-1-(4-(3,4,5-trifluorobenzyl)pyridin-2-yl)indoline-4-carboxamide], which EC50 is on record?
Answer: Its EC50 is 0.00974 µM.

Question: Which EC50 does the source give for `CN(C)Cc1cccc(Cc2ccnc(N3CCc4c(C(N)=O)cccc43)c2)c1` [Compound 81, 1-(4-(3-((Dimethylamino)methyl)benzyl)pyridin-2-yl)indoline-4-carboxamide] here?
Answer: The EC50 was 3.75 µM.

Question: For `CC(=O)Oc1cccc(Cc2ccnc(N3CCc4c(C(N)=O)cccc43)c2)c1` [Compound 102, 3-((2-(4-Carbamoylindolin-1-yl)pyridin-4-yl)methyl)phenyl acetate], which EC50 is on record?
Answer: The EC50 was 0.0214 µM.

Question: With `O=C(NCCO)c1cccc2c1CCN2c1ccnc(Cc2cc(F)cc(Cl)c2)c1` [Compound 187, 1-(2-(3-Chloro-5-fluorobenzyl)pyridin-4-yl)-N-(2-hydroxyethyl)indoline-4-carboxamide] as the compound, how does the EC50 read?
Answer: Its EC50 is 0.0129 µM.
